These results are taken from patent US5214053A, “Thiourea derivatives and antimicrobial agent and antiulcer agent containing the same” (Terumo Kabushiki Kaisha, priority 1991, dated 1993).

Assay [1] relates to peptic ulcer induced by water immersion restrain stress. Kind of assay: Inhibitory action against peptic ulcer induced by water immersion restrain stress. The format is in vivo, SD male rats. As to conditions: Rattus norvegicus, read-out: Inhibitory action against stress peptic ulcer, percent inhibition of peptic ulcer formation. The protocol: Inhibitory Action Against Peptic Ulcer Induced By Water Immersion Restrain Stress
SD male rats (weighing 200-300 g) were fasted for 24 hours before oral administration of a thiourea derivative of the invention at a dose of 32 mg/kg bodyweight. One hour later, the animal was put in a stress cage and loaded with water immersion restraint stress in a water bath at 23° C.
Seven hours after loading with the stress, the rat was sacrificed with ether, and the stomach was excised and treated with formalin. Area (mm^2) of the lesions developed in the glandular stomach area was then measured. Results were expressed in sum of the lesions per animal which was referred to as peptic ulcer index.
Percent inhibition of the peptic ulcer formation (%) as shown in the table was calculated according to the following equation: [formula]

Another assay deals with Helicobacter pylori. The assay is described as follows: Antimicrobial activity against Helicobacter pylori (MIC). The format is cell-based, Helicobacter pylori strain NCTC 11916. The protocol: Antimicrobial Activity Against Helicobacter Pylori
Antimicorbial activity of the thiourea derivatives according to the invention against Helicobacter pylori (or Campylobacter pylori) was evaluated by employing strain NCTC 11916 as a Helicobacter test organism and determining MIC (minimum inhibitory concentration) of the thiourea derivative against Helicobacter pylori.
The Helicobacter pylori was pre-incubated in a plate medium for 3-5 days. […] These antibiotics were contained for inhibition of the growth of microorganisms with than Helicobacter pylori.
The Helicobacter pylori pre-incubated under slightly aerobic conditions (an O2 concentration of about 5%) at 37° C. for 3-5 days was suspended in a physiological saline solution in a concentration of approximately 10^8 organisms/ml. Approximately 10-20 μl of the suspension was inoculated on a medium for MIC measurement in cross streaks. […] The DMSO solution was formed by the twofold dilution method using sterilized distilled water. As in the pre-incubation, the Helicobacter pylori was cultured under slightly aerobic conditions at 37° C. for 3-5 days. After completion of the culture, growth of the microorganisms on the streaks was visually determined. […] The MIC of cemetidine, an antagonist to histamine was also measured for comparison.

The next assay concerns ethanol peptic ulcer. Kind of assay: Inhibitory action against ethanol peptic ulcer. The conditions noted are these: Rattus norvegicus, read-out: Inhibitory action against ethanol peptic ulcer, percent inhibition of peptic ulcer formation. The format is in vivo, SD male rats. As for the experimental part:
Inhibitory Action Against Ethanol Peptic Ulcer
SD male rats (weighing 200-300 g) were fasted for 24 hours before oral administration of a thiourea derivative of the invention at a dose of 32 mg/kg bodyweight. One hour later, ethanol was orally given in a volume of 0.5 ml/100 g bodyweight. One hour after administering ethanol, the rat was sacrificed with ether, and the stomach was excised and treated with formalin. Area (mm^2) of the lesions developed in the glandular stomach area was then measured. Results were expressed in sum of the lesions per animal which was referred to as peptic ulcer index.
Percent inhibition of the peptic ulcer formation (%) as shown in the table was calculated according to the same equation as mentioned above.

[2] abbreviates: SD male rats, oral, 32 mg/kg, 1 hour before stress, lesions measured 7 hours after loading with the stress.
The mark [3] stands for this setting: NCTC11916, strain NCTC 11916, Mueller-Hinton agar with horse hemolysis solution, 37° C., 3-5 days, slightly aerobic (O2 about 5%), read-out: Antimicrobial activity against Helicobacter pylori, MIC (minimum inhibitory concentration).
Setting [4] is: SD male rats, oral, 32 mg/kg, 1 hour before ethanol (0.5 ml/100 g), lesions measured 1 hour after ethanol.

The structures appear in SMILES notation. ≈ marks a conversion by molar mass, not a printed value. Like-named read-outs stand apart in the source and are kept apart here. Bounds are passed on as bounds.

In the case of `CNC(=NC#N)NCCSCc1nc[nH]c1C` [Cemetidine, reference compound], the inhibition in vivo at 32 mg/kg in assay [1] (po, 7 h) stood at 64%; with ethanol peptic ulcer (po, 1 h), 16%. Moreover, the MIC with Helicobacter pylori (NCTC11916, read-out: Antimicrobial activity against Helicobacter pylori, MIC (minimum inhibitory concentration)) was no less than 400 µg/mL.
Regarding `O=C(CCCNC(=S)Nc1ccc2c(c1)OCO2)NCCCOc1cccc(CN2CCCCC2)c1` [Example 1, 1-[3-[N-[3-[3(piperidinomethyl)phenoxy]propyl]carbamoyl]propyl]-3-[(3,4methylenedioxy)phenyl] thiourea], the inhibition in vivo at 32 mg/kg in assay [1] (setting [2]) was found to be 80%; with ethanol peptic ulcer (setting [4]), 67%. Also, the MIC in the assay with Helicobacter pylori (setting [3]) was found to be 6.25 µg/mL (≈ 12.2 µM).
On to `CCN(CC)Cc1cccc(OCCCNC(=O)CCCNC(=S)Nc2ccc3c(c2)OCO3)c1` [Example 5, 1-[3-[N-[3-[3-(diethylaminomethyl)phenoxy]propyl]carbamoyl]propyl]-3-[(3,4-methylenedioxy)phenyl]thiourea], for which the results for the inhibition in vivo at 32 mg/kg (in assay [1] (setting [2]); in the assay with ethanol peptic ulcer (setting [4])) were 62% and 52%, respectively. Besides, the MIC with Helicobacter pylori (setting [3]) amounted to 12.5 µg/mL (≈ 25 µM).
For `CC1CCCN(Cc2cccc(OCCCNC(=O)CCCNC(=S)Nc3ccc4c(c3)OCO4)c2)C1` (stereo not drawn) [Example 4, 1-[3-[N-[3-[3((3-methylpiperidino)methyl)phenoxy]propyl]carbamoyl]propyl]-3-[(3,4-methylenedioxy)phenyl]thiourea], in that order: 77%, 71% and 6.25 µg/mL (≈ 11.9 µM).
In the case of `O=C(CCCNC(=S)Nc1ccc2c(c1)OCCO2)NCCCOc1cccc(CN2CCCCC2)c1` [Example 2, 1-[3-[N-[3-[3-(piperidinomethy)phenoxy]propyl]carbamoyl]propyl]-3-[(3,4-ethylenedioxy)phenyl]thiourea], the inhibition in vivo at 32 mg/kg in assay [1] (setting [2]) came to 76%; with ethanol peptic ulcer (setting [4]), 66%. Also, the MIC in the assay on Helicobacter pylori (setting [3]) was determined as 6.25 µg/mL (≈ 11.9 µM).
In the case of `O=C(CCCNC(=S)Nc1ccc2c(c1)OCO2)NCCCOc1cc(CN2CCCCC2)ccn1` [Example 7], the inhibition in vivo at 32 mg/kg in assay [1] (setting [2]) was determined as 78%; in the assay on ethanol peptic ulcer (setting [4]), 63%. For the same compound, the MIC with Helicobacter pylori (setting [3]) amounted to 6.25 µg/mL (≈ 12.2 µM).
In the same order, the values of `O=C(CCCNC(=S)Nc1ccc2c(c1)OCO2)NCCCOc1cccc(CN2CCCC2)c1` [Example 3, 1-[3-[N-[3-[3-(pyrrolidinomethyl)phenoxy]propyl]carbamoyl]propyl]-3-[(3,4-methylenedioxy)phenyl]-thiourea] are 68%, 61% and 6.25 µg/mL (≈ 12.5 µM).
For `O=C(CCCCCNC(=S)Nc1ccc2c(c1)OCO2)NCCCOc1cccc(CN2CCCCC2)c1` [Example 6], in that order: 65%, 70% and 6.25 µg/mL (≈ 11.6 µM).
In the same order, the values of `O=C(CCCNC(=S)NCc1ccc2c(c1)OCO2)NCCCOc1cccc(CN2CCCCC2)c1` [Example 8] are 82%, 78% and 6.25 µg/mL (≈ 11.9 µM).
